Measurements as given in patent US5837839A, “DNA coding sequences for mevalonate Pyrophosphate decarboxylase” (Novartis Finance Corporation, priority 1996, dated 1998).

Assays:
[1] = target: T1, partially purified human liver MPD (mevalonate pyrophosphate decarboxylase) (Homo sapiens, UniProt P53602); assay: Inhibition of partially purified human liver MPD by phenylglyoxal; type: biochemical; settings: partially purified enzyme; no concentration stated
T1 construct: from tissue; host or cells: human liver
T1 sequence (P53602 1-400): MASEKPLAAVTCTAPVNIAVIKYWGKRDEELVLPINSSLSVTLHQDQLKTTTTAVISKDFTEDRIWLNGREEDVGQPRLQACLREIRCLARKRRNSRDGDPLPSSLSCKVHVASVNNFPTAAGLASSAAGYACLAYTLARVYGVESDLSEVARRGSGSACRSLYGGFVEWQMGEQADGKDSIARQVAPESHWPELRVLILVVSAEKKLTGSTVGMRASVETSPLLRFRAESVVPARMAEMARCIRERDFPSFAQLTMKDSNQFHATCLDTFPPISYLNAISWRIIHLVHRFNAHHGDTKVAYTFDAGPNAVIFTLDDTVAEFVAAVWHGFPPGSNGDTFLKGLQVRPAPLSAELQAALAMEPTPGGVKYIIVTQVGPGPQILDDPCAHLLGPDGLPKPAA
From the text: This agrees with the work of Jabalquinto et al., (1983) Arch. Biochem. Biophys. […] They concluded that a single arginine is near the binding site of ATP and MevPP in the chicken liver enzyme. To this end, the Arg27Lys and Arg153Lys mutants were made using the AAA lysine codon triplet and a single-stranded DNA template isolated from pO-3. These mutated cDNAs were subcloned into pET14-b and expressed like p11-4 as described above. […] The Arg27Lys mutant appears to produce lower activity compared to the parent plasmid ([…]) from which it was derived, but this may not be a significant difference. […] Antisera against MPD for the Westerns was made with material expressed in E. coli from plasmid p11-4.
Cell pellets from the various expression systems were sonicated in homogenization buffer (20 mM Tris/HCl pH 7.5, 15 mM EDTA, 15 mM EGTA, 100 μM Leupeptin, 0.75 mg/l Aprotinin, 0.1 mM PMSF) and assayed directly for enzyme activity and protein concentration. Activity was measured as the conversion of labelled mevalonate pyrophosphate into isopentenyl pyrophosphate. […] 2 ml of Econofluor-2 (New England Nuclear) was added to the assay mixture the sample was capped, shaken, and counted on a scintillation counter. Because of the organic nature of the scintillation fluid, dephosphorylated product (isopentenyl) is solubilized and counted whereas dephosphorylated substrate (mevalonic acid) is not. […]

[2] = system: chicken liver MPD (mevalonate pyrophosphate decarboxylase); settings: pseudo-first order kinetics; ATP and MevPP protect against inactivation; cited from earlier work

For `O=CC(=O)c1ccccc1` [phenylgloxal], the “inhibition of MPD” value [1] is given as “inhibited” and the “inactivation of MPD” value [2] is given as “inactivated”.
